The record followed here is patent US8741892B2, “Compounds” (Boehringer Ingelheim International GmbH, priority 2011, dated 2014).

As usually defined, the EC50 is the concentration that produces a half-maximal response.

T1 sequence (P41594 21-1212): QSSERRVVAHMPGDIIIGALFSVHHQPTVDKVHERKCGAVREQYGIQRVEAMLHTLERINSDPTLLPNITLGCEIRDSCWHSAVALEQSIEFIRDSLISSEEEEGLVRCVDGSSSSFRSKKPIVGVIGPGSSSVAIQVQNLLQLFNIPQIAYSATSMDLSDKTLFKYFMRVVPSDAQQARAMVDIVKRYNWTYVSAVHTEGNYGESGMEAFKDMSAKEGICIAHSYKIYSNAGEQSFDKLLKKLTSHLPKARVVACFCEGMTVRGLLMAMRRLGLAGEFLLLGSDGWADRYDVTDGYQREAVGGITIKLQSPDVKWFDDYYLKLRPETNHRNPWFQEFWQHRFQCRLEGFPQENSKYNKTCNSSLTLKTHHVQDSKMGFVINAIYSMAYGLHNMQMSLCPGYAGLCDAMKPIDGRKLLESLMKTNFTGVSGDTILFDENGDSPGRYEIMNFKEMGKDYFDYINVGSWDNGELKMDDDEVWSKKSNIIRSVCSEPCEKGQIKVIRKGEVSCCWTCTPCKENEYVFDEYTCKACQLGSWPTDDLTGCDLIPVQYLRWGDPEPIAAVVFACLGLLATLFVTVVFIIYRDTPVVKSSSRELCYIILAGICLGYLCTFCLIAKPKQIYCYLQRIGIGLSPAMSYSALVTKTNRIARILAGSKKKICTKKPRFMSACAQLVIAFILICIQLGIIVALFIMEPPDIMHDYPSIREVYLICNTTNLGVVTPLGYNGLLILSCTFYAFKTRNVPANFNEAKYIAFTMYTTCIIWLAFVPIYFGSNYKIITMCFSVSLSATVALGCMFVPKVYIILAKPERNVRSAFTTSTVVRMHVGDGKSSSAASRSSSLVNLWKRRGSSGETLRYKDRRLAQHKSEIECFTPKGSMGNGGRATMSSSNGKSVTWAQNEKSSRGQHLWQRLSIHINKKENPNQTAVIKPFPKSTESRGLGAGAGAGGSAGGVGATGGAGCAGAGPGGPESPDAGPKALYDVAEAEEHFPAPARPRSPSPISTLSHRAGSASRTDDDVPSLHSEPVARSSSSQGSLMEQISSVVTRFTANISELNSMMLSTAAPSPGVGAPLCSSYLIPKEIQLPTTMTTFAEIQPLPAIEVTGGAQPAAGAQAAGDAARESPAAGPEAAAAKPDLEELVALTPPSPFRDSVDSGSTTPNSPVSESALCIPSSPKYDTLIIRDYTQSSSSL

This experiment addresses T1, human recombinant mGluR5 (Homo sapiens, UniProt P41594).
T1 construct: expressed in transfected cells; host or cells: HEK 293
In words: positive modulation of mGluR5, calcium based FLIPR assay. Conditions: HEK 293 cell line expressing human recombinant mGluR5; EC50 of the modulation from peak Ca fluorescence signal after glutamate at approx. 5% basal stimulation. How it is done: The positive modulation of mGluR5 is measured in a HEK 293 cell line expressing human recombinant mGluR5 and is detected with calcium based FLIPR assay. The cells are cultured with DMEM supplemented with 10% FCS, 2 μg/mL tetracycline, 100 μg/mL hygromycin and 500 μg/mL geneticin. The cell culture media is exchanged for tetracycline-free cell culture media 3-7 days before the assay. One day before the assay the cell culture medium is exchanged to DMEM without glutamine and phenol red and supplemented with 10% FCS, 100 μg/mL hygromycin and 500 μg/mL geneticin. On the assay day, the medium of the subconfluent cultures is removed and the cells are detached by addition of 2.5 ml EDTA (0.02%) per 175 cm2 culture flask for 1 minute. The cells are resuspend in Ringer solution (140 mM NaCl, 5 mM KCl, 2.5 mM CaCl2, 1.5 mM MgCl2, 5 mM Glucose, 10 mM Hepes; adjusted to pH 7.4 with NaOH), pooled and Ringer solution added to adjust the volume to 50 mL. The cell suspension is centrifuged for […] at 1500 U/min (425 g). The supernatant is removed and the cells washed a second time with 50 ml fresh Ringer solution and centrifuged again as before. The supernatant is again removed and the pellet resuspended in Ringer solution to 1,000,000 cells/ml (1×10^6 cells/mL). The cells are plated onto BD BioCoat Poly-D-Lysine 384 well plates (20.000 cells/well; 20 μl/well). The lid covered plates are then incubated until use at 37° C./10% CO2. For dye loading, 20 μl of Calcium-4 assay kit solution (prepared according to the manufacturer's description in Ringer solution) are added to the cells and the plates are incubated for […] 37° C. and then […] at room temperature.
Controls, Compound Dilution and Assay Execution:
Each assay plate contained wells with “high” and “low” controls:
Low controls 1% DMSO/ringer solution+basal glutamate activation (defined as 100% CTL).
High controls 10 μM CDPPB+basal glutamate activation (defined as 200% CTL).
Test compounds are dissolved and diluted in DMSO to 100-fold the desired concentrations. In a second step, the compounds are diluted in Ringer solution such that the compounds are 4-fold more concentrated than the desired final assay concentration. The final DMSO concentration was 1%.
20 μl of each compound solution are then transferred to the assay plate and the Ca2+ kinetic is measured to determine any intrinsic compound activity. After 5 mM incubation in the FLIPR device, the second stimulation with 20 μl of glutamate in Ringer solution (glutamate concentration adjusted to approximately 5% basal stimulation of the maximal possible glutamate effect) is added and the kinetic Ca2+ response of the wells was measured for the modulation effect.
The peak height of the Ca release related fluorescence signal (9-66) is used for the EC50. The EC50 of the modulation is calculated over a nonlinear regression with GraphPad Prism (Table 1).
Take `O=C(Cn1nc(-c2ccccc2)cc1-c1ccccc1)N1CCC(c2ncc(Cl)cn2)CC1` [Example 7.01.001, 2-(3,5-diphenyl-pyrazol-1-yl)-1-(4-(5-chloro-pyrimidin-2-yl)-1-piperidinyl)-ethanon]: the EC50 amounted to 1430 nM. For `Cc1nc2c(o1)CN(C(=O)Cn1nc(-c3ccccc3)cc1-c1ccccc1)CC2` [Example 7.01.002], the EC50 is 592 nM. On to `Cc1csc(N2CCN(C(=O)Cn3nc(-c4ccccc4)cc3-c3ccccc3)CC2)n1` [Example 7.01.003], for which the EC50 is 1780 nM. For `COc1ccc2c(c1)CN(C(=O)Cn1nc(-c3ccccc3)cc1-c1ccccc1)C2` [Example 7.01.004], the EC50 was determined as 390 nM. In the case of `Cc1nc2c(s1)CN(C(=O)Cn1nc(-c3ccccc3)cc1-c1ccccc1)C2` [Example 7.01.005], the 50% effective concentration (EC50) was determined as 381 nM.

For `O=C(Cn1nc(-c2ccccc2)cc1-c1ccccc1)N1CCc2cn[nH]c2CC1` [Example 7.01.006], the EC50 amounted to 870 nM. For the compound `COc1ccc2c(c1)CN(C(=O)Cn1nc(-c3ccccc3)cc1-c1ccccc1)CC2` [Example 7.01.007], the EC50 was 1540 nM. `COc1ccc2c(c1)CCN(C(=O)Cn1nc(-c3ccccc3)cc1-c1ccccc1)CC2` [Example 7.01.008]: the EC50 was 1180 nM.

Regarding `O=C(Cn1nc(-c2ccccc2)cc1-c1ccccc1)N1CCc2c(F)cccc2C1` [Example 7.01.009], the EC50 amounted to 1540 nM. Turning to `O=C(Cn1nc(-c2ccccc2)cc1-c1ccccc1)N1CCc2cc(C(F)(F)F)ccc2C1` [Example 7.01.010], the EC50 amounted to 695 nM. `COc1ccccc1N1CCN(C(=O)Cn2nc(-c3ccccc3)cc2-c2ccccc2)CC1=O` [Example 7.01.011]: the EC50 came to 1970 nM. Turning to `C=CCNC(=O)Nc1nc2c(s1)CN(C(=O)Cn1nc(-c3ccccc3)cc1-c1ccccc1)CC2` [Example 7.01.012], the EC50 is 829 nM.

For the compound `O=C(Cn1nc(-c2ccccc2)cc1-c1ccccc1)N1CCN(c2cccc(Br)c2)C(=O)C1` [Example 7.01.013], the EC50 stood at 617 nM. As to `O=C(Cn1nc(-c2ccccc2)cc1-c1ccccc1)N1CCN(c2ccccc2F)C(=O)C1` [Example 7.01.014], the EC50 was determined as 463 nM. For the compound `COc1cccc2c1CCN(C(=O)Cn1nc(-c3ccccc3)cc1-c1ccccc1)C2` [Example 7.01.015], the EC50 was 1810 nM. For `O=C(Cn1nc(-c2ccccc2)cc1-c1ccccc1)N1CCN(c2noc3ccccc23)CC1` [Example 7.01.016], the EC50 came to 143 nM.

`COc1ccc2c(c1)CCN(C(=O)Cn1nc(-c3ccccc3)cc1-c1ccccc1)C2` [Example 7.01.018]: the EC50 stood at 538 nM. On to `O=C(Cn1nc(-c2ccccc2)cc1-c1ccccc1)N1CCN(c2ccc(F)cc2)C(=O)C1` [Example 7.01.019], for which the EC50 was found to be 1660 nM. In the case of `COc1cccc(N2CCN(C(=O)Cn3nc(-c4ccccc4)cc3-c3ccccc3)CC2=O)c1` [Example 7.01.020], the EC50 turned out to be 258 nM. On to `CC(=O)Nc1nc2c(s1)CCN(C(=O)Cn1nc(-c3ccccc3)cc1-c1ccccc1)CC2` [Example 7.01.021], for which the concentration giving a half-maximal response (EC50) is 1530 nM.

`COC(=O)c1ccc2c(c1)CCN(C(=O)Cn1nc(-c3ccccc3)cc1-c1ccccc1)C2` [Example 7.01.022]: the EC50 was found to be 511 nM. For `Nc1nc2c(s1)CCN(C(=O)Cn1nc(-c3ccccc3)cc1-c1ccccc1)CC2` [Example 7.01.023] the value was 166 nM; for `O=C(Cn1nc(-c2ccccc2)cc1-c1ccccc1)N1CCc2c(F)ccc(F)c2C1` [Example 7.01.024], 1160 nM; for `CC1CN(C(=O)Cn2nc(-c3ccccc3)cc2-c2ccccc2)CC(C)N1C(=O)OCc1ccccc1` (stereo not drawn) [Example 7.01.025], 1870 nM.

As for `O=C(Cn1nc(-c2ccccc2)cc1-c1ccccc1)N1CCc2ncnc(-c3ccccc3)c2CC1` [Example 7.01.026], the EC50 is 503 nM.

As for `O=C(Cn1nc(-c2ccccc2)cc1-c1ccccc1)N1CCc2cc(F)ccc2C1` [Example 7.01.027], the EC50 turned out to be 1020 nM. As to `CC(C)NC(=O)Nc1nc2c(s1)CN(C(=O)Cn1nc(-c3ccccc3)cc1-c1ccccc1)CC2` [Example 7.01.028], the EC50 was found to be 1300 nM. Regarding `CC(C)c1ncc2c(n1)CCN(C(=O)Cn1nc(-c3ccccc3)cc1-c1ccccc1)C2` [Example 7.01.029], the EC50 came to 796 nM.

As for `COC(=O)c1ccc2c(c1)CCN(C(=O)Cn1nc(-c3ccccc3)cc1-c1ccccc1)CC2` [Example 7.01.030], the EC50 amounted to 484 nM. For `N#Cc1ccc2c(c1)CN(C(=O)Cn1nc(-c3ccccc3)cc1-c1ccccc1)CC2` [Example 7.01.031], the concentration for a half-maximal effect (EC50) is 1870 nM. For `O=C(Cn1nc(-c2ccccc2)cc1-c1ccccc1)N1Cc2nc(-c3ccccc3)sc2C1` [Example 7.01.032] the value was 710 nM; for `Nc1nnc(C2CCN(C(=O)Cn3nc(-c4ccccc4)cc3-c3ccccc3)CC2)o1` [Example 7.01.033], 1530 nM. In the case of `O=C(Cn1nc(-c2ccccc2)cc1-c1ccccc1)N1CCN(c2cccc(F)c2)C(=O)C1` [Example 7.01.034], the EC50 was found to be 398 nM. Regarding `COc1cccc(N2CCN(C(=O)Cn3nc(-c4ccccc4)cc3-c3ccccc3)CC2=O)c1` [Example 7.01.035], the EC50 is 205 nM. Take `Nc1ccc2c(c1)CCN(C(=O)Cn1nc(-c3ccccc3)cc1-c1ccccc1)CC2` [Example 7.01.036]: the EC50 was determined as 1320 nM. Take `O=C(Cn1nc(-c2ccccc2)cc1-c1ccccc1)N1CCN(c2nnc(C(F)(F)F)s2)CC1` [Example 7.01.037]: the EC50 is 188 nM. As for `Cc1nc2c(s1)CN(C(=O)Cn1nc(-c3ccccc3)cc1-c1ccccc1)C2` [Example 7.01.038], the EC50 was 359 nM.

Take `O=C(Cn1nc(-c2ccccc2)cc1-c1ccccc1)N1CCc2c(Cl)cccc2C1` [Example 7.01.039]: the EC50 was 752 nM. On to `CCNC(=O)Nc1nc2c(s1)CN(C(=O)Cn1nc(-c3ccccc3)cc1-c1ccccc1)CC2` [Example 7.01.041], for which the EC50 is 1550 nM. For `O=C(Cn1nc(-c2ccccc2)cc1-c1ccccc1)N1CCN(c2nnc(C(F)(F)F)s2)CC1` [Example 7.01.042] the value was 285 nM.

For `O=C(Cn1nc(-c2ccccc2)cc1-c1ccccc1)N1CCN(c2nccs2)CC1` [Example 7.01.043], the EC50 was determined as 40 nM.

On to `O=C(Cn1nc(-c2ccccc2)cc1-c1ccccc1)N1CCC(c2nccs2)CC1` [Example 7.01.044], for which the EC50 was found to be 1850 nM.

With `O=C(Cn1nc(-c2ccccc2)cc1-c1ccccc1)N1CCc2c(cccc2C(F)(F)F)C1` [Example 7.01.045], the EC50 amounted to 689 nM.

Turning to `N#Cc1ccc2c(c1)CCN(C(=O)Cn1nc(-c3ccccc3)cc1-c1ccccc1)C2` [Example 7.01.046], the EC50 came to 1000 nM. `O=C(Cn1nc(-c2ccccc2)cc1-c1ccccc1)N1CCC(c2nnc(-c3ccc(F)cc3)o2)CC1` [Example 7.01.047]: the EC50 was found to be 789 nM. For the compound `O=C(Cn1nc(-c2ccccc2)cc1-c1ccccc1)N1CCN(c2nccc3sccc23)CC1` [Example 7.01.048], the EC50 was 573 nM.

As to `O=C(Cn1nc(-c2ccccc2)cc1-c1ccccc1)N1CCN(c2nccc3occc23)CC1` [Example 7.01.049], the concentration for a half-maximal effect (EC50) worked out at 652 nM. `Cc1ccc(NC2CCN(C(=O)Cn3nc(-c4ccccc4)cc3-c3ccccc3)CC2)c(C)c1` [Example 7.01.051]: the EC50 amounted to 1440 nM. For `Cc1cc(-c2cc(-c3ccccc3)n(CC(=O)N3CCc4cn[nH]c4CC3)n2)ccc1F` [Example 7.01.052] the value was 31 nM; for `N#Cc1ccc(Cl)cc1NC1CCN(C(=O)Cn2nc(-c3ccccc3)cc2-c2ccccc2)CC1` [Example 7.01.053], 914 nM.

For `CCc1cc(-c2ccc(F)c(C)c2)nn1CC(=O)N1CCc2nc(OC)sc2CC1` [Example 7.01.054], the EC50 was determined as 53 nM.

Turning to `COCc1cc(-c2ccc(F)c(C)c2)nn1CC(=O)N1CCc2nc(C)sc2CC1` [Example 7.01.055], the EC50 is 53 nM.

Turning to `COCc1cc(-c2ccc(F)c(C)c2)nn1CC(=O)N1CCc2nc(N)sc2CC1` [Example 7.01.056], the EC50 was found to be 253 nM.

Regarding `COCc1cc(-c2ccc(F)c(C)c2)nn1CC(=O)N1CCc2nc(C)oc2C1` [Example 7.01.057], the EC50 came to 740 nM.
